Results as given in ChEMBL document CHEMBL5715954, “Silencing c-Myc translation as a therapeutic strategy through targeting PI3Kδ and CK1ε in hematological malignancies” (Blood, 2017).

Experiments:
Parameters in all cases: scale not given: the % may be the effect or the level left
[1] = molecular target: Death-associated protein kinase 1 (Homo sapiens) (UniProt P53355); assay: Inhibition of human DAPK1 assessed as enzyme activity at 1 uM using KKLNRTLSFAEPG as substrate preincubated for 20 mins followed by [gamma-33P]-ATP addition and measured after 120 mins by radiometric Hot-SpotSM Kinase assay relative to control
Sequence of Death-associated protein kinase 1 (Homo sapiens) (P53355 whole entry, looked up): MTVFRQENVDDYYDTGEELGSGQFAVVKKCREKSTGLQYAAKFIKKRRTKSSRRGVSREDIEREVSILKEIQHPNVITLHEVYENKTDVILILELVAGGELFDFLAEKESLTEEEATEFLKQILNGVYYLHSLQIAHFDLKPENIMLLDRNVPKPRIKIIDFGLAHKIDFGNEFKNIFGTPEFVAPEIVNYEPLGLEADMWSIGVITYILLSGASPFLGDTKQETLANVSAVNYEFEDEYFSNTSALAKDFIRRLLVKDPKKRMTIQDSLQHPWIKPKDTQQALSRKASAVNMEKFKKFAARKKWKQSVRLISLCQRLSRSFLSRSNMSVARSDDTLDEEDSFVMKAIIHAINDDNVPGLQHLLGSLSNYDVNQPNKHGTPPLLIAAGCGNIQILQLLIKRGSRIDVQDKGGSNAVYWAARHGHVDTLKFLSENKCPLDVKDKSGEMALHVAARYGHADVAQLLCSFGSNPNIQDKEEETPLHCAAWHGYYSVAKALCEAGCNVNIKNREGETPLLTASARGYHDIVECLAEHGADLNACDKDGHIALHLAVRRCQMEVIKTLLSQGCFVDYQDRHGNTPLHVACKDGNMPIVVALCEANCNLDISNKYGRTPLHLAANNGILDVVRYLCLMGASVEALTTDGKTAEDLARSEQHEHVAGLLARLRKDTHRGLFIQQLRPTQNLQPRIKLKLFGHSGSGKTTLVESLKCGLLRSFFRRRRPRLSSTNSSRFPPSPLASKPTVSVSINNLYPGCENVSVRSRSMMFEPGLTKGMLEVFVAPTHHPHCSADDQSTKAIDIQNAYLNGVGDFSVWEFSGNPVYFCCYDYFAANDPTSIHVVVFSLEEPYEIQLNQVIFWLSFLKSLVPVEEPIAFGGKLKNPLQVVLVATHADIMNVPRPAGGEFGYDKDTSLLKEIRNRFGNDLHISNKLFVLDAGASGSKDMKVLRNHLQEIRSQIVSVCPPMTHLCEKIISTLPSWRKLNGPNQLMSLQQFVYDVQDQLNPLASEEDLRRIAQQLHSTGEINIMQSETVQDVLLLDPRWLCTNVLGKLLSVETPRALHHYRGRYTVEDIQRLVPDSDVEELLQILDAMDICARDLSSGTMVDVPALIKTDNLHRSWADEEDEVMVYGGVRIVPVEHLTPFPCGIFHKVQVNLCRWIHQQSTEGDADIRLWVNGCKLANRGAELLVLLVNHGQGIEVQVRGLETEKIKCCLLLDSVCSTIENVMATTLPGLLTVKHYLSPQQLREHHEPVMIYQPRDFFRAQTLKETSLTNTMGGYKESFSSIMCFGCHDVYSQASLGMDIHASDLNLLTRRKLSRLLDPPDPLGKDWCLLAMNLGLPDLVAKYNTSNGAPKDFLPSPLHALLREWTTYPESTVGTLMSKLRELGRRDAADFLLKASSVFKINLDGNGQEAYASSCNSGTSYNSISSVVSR

[2] = molecular target: T1, Mitogen-activated protein kinase 15 (Homo sapiens) (UniProt Q8TD08); assay: Inhibition of human ERK7 assessed as enzyme activity at 1 uM using myelin basic protein as substrate preincubated for 20 mins followed by [gamma-33P]-ATP addition and measured after 120 mins by radiometric Hot-SpotSM Kinase assay relative to control
T1 sequence (whole entry): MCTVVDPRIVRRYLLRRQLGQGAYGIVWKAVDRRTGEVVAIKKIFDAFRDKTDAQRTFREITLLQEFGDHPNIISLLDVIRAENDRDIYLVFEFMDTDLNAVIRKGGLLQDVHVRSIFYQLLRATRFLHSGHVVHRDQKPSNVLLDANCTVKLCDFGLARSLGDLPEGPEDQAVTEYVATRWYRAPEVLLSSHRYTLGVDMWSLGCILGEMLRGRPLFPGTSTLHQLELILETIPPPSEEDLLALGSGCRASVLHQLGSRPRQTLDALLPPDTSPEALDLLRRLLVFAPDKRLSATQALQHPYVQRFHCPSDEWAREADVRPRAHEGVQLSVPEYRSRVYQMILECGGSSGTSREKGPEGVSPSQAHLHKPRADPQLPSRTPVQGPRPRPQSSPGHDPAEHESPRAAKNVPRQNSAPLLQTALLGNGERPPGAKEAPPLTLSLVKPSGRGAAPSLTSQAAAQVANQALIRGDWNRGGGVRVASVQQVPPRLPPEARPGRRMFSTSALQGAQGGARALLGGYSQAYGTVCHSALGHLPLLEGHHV

[3] = molecular target: Serine/threonine-protein kinase/endoribonuclease IRE2 (Homo sapiens) (UniProt Q76MJ5); assay: Inhibition of human ERN2/IRE2 assessed as enzyme activity at 1 uM using myelin basic protein as substrate preincubated for 20 mins followed by [gamma-33P]-ATP addition and measured after 120 mins by radiometric Hot-SpotSM Kinase assay relative to control
Sequence of Serine/threonine-protein kinase/endoribonuclease IRE2 (Homo sapiens) (Q76MJ5 35-926 limits assumed): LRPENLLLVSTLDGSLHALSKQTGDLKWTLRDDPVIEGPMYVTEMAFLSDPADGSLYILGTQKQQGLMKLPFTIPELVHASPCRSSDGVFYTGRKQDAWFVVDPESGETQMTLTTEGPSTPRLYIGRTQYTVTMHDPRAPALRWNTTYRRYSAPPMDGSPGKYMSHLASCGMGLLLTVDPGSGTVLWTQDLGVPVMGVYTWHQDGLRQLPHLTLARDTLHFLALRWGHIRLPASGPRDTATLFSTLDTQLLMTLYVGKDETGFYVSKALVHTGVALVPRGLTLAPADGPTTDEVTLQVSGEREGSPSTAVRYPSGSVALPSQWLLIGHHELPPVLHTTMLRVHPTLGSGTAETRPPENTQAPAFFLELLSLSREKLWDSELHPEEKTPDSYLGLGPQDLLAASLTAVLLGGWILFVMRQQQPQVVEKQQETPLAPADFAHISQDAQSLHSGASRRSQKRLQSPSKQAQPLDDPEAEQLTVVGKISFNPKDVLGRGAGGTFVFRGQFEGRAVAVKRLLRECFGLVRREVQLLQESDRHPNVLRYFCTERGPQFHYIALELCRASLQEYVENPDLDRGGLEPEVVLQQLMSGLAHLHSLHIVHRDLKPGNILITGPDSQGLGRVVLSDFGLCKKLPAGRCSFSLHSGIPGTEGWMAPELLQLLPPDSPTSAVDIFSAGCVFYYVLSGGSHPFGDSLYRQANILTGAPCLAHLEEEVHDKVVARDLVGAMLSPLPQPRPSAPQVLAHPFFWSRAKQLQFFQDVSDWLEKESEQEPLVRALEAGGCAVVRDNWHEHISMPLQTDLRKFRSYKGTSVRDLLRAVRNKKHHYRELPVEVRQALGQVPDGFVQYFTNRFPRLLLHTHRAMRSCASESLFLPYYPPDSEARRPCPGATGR

[4] = molecular target: Misshapen-like kinase 1 (Homo sapiens) (UniProt Q8N4C8); assay: Inhibition of human MINK1 assessed as enzyme activity at 1 uM using myelin basic protein as substrate preincubated for 20 mins followed by [gamma-33P]-ATP addition and measured after 120 mins by radiometric Hot-SpotSM Kinase assay relative to control
Sequence of Misshapen-like kinase 1 (Homo sapiens) (Q8N4C8 whole entry, looked up): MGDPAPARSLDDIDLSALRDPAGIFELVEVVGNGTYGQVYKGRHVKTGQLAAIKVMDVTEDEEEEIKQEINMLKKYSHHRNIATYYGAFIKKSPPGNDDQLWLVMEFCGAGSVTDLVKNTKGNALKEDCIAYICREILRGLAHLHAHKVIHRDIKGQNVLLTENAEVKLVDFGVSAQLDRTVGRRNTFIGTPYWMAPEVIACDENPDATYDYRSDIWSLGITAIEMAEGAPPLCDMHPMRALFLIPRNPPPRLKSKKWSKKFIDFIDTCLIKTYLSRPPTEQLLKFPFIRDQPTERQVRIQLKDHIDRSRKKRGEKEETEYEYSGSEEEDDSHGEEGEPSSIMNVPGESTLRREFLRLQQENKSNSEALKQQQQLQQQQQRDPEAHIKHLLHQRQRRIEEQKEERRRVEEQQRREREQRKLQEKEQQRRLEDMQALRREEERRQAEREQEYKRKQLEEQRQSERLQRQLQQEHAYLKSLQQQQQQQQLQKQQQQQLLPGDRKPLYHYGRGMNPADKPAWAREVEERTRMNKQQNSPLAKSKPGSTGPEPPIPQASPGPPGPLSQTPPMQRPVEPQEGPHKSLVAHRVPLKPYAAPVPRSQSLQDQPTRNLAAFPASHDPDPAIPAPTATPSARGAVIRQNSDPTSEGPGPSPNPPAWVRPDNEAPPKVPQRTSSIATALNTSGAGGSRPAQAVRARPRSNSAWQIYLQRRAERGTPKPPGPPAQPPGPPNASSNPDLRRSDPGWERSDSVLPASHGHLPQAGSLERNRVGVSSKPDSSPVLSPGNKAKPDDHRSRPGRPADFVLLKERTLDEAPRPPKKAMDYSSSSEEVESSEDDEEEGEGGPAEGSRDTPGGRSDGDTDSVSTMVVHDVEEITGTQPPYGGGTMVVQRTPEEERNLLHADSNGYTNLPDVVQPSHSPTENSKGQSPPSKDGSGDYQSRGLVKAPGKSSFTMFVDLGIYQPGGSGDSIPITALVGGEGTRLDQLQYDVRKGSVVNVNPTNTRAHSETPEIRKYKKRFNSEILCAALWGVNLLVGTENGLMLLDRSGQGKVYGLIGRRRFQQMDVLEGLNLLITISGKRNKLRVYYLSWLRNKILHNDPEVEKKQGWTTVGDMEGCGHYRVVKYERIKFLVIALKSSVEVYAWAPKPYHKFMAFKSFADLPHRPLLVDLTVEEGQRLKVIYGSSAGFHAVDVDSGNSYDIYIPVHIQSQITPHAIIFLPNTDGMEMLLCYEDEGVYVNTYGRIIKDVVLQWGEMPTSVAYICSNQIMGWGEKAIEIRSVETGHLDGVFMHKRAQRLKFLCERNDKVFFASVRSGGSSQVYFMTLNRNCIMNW

[5] = molecular target: T2, Serine/threonine-protein kinase 3 (Homo sapiens) (UniProt Q13188); assay: Inhibition of human MST2 assessed as enzyme activity at 1 uM using myelin basic protein as substrate preincubated for 20 mins followed by [gamma-33P]-ATP addition and measured after 120 mins by radiometric Hot-SpotSM Kinase assay relative to control
T2 sequence (whole entry): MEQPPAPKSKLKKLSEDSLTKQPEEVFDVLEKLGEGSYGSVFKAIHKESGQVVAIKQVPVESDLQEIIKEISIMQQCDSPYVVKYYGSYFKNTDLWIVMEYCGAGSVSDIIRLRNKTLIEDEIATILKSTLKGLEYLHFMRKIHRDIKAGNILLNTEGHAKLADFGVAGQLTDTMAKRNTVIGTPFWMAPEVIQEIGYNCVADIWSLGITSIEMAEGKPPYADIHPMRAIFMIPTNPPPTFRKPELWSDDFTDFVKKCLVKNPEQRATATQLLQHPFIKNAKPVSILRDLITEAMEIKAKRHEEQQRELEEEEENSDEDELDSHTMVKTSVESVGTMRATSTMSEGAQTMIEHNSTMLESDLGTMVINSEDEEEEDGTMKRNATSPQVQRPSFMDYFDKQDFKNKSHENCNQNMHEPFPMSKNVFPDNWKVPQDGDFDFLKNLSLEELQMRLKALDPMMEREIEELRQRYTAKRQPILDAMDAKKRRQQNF

[6] = molecular target: T3, Myosin-IIIb (Homo sapiens) (UniProt Q8WXR4); assay: Inhibition of human MYO3b assessed as enzyme activity at 1 uM using myelin basic protein as substrate preincubated for 20 mins followed by [gamma-33P]-ATP addition and measured after 120 mins by radiometric Hot-SpotSM Kinase assay relative to control
T3 sequence (whole entry): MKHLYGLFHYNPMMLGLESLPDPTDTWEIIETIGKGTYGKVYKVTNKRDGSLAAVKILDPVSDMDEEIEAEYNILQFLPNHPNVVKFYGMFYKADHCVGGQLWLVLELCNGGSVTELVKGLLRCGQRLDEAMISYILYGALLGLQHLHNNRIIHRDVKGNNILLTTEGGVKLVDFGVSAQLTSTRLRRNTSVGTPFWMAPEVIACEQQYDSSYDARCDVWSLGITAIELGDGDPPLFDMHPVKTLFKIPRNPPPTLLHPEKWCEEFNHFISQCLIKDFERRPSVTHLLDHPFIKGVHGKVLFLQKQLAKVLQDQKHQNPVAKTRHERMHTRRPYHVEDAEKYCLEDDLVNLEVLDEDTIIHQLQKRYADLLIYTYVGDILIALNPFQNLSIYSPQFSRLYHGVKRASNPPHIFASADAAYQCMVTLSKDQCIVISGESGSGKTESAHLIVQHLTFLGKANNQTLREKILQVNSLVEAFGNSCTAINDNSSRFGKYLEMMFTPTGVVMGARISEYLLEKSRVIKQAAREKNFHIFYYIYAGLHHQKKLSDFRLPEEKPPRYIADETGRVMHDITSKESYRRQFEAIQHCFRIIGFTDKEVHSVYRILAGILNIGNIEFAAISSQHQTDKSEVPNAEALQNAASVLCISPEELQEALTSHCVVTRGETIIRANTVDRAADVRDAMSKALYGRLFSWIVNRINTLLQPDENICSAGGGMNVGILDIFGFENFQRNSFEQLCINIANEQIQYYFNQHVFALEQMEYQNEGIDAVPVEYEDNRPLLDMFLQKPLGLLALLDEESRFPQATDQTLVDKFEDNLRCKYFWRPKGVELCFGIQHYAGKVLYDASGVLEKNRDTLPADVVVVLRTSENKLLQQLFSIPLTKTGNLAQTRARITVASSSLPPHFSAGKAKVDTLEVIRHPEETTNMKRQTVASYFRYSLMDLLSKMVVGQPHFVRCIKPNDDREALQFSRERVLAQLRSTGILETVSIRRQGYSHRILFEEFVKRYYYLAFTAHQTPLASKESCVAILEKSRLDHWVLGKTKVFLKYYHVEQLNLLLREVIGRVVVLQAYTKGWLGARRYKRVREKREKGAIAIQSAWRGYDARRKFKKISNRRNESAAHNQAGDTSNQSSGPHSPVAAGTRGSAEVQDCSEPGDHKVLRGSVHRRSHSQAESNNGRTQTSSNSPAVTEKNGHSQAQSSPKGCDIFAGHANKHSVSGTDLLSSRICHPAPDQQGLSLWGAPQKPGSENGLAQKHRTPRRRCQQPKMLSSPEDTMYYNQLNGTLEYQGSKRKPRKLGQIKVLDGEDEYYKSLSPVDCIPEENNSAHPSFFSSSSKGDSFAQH

Row | SMILES | Activity [1] | Activity [2] | Activity [3] | Activity [4] | Activity [5] | Activity [6]
1 | C[C@H](Nc1ncnc2nc[nH]c12)c1cc2cccc(Cl)c2c(=O)n1-c1ccccc1 | 97% | 98.5% | 96.5% | 97% | 94.5% | 114%
2 | CC[C@H](Nc1ncnc2[nH]cnc12)c1nc2cccc(F)c2c(=O)n1-c1ccccc1 | 95% | 94.3% | 100% | 95.2% | 96.9% | 93.5%
3 | CC(C)Oc1ccc(-c2nn([C@@H](C)c3oc4ccc(F)cc4c(=O)c3-c3cccc(F)c3)c3ncnc(N)c23)cc1F [UMBRALISIB] | 99.7% | 88.3% | 98.3% | 96.4% | 97.4% | 121%
